Here are results for six compounds from patent US20080132536A1, “PYRAZOLO [3,4-B] PYRIDINE COMPOUNDS, AND THEIR USE AS PDE4 INHIBITORS” (Glaxo Group Limited, priority 2003, published 2008).

The target in the assay is T1, PDE4B (human recombinant) (Homo sapiens, UniProt Q07343).
T1 construct: made in house
T1 sequence (Q07343 1-564 isoform Q07343-2): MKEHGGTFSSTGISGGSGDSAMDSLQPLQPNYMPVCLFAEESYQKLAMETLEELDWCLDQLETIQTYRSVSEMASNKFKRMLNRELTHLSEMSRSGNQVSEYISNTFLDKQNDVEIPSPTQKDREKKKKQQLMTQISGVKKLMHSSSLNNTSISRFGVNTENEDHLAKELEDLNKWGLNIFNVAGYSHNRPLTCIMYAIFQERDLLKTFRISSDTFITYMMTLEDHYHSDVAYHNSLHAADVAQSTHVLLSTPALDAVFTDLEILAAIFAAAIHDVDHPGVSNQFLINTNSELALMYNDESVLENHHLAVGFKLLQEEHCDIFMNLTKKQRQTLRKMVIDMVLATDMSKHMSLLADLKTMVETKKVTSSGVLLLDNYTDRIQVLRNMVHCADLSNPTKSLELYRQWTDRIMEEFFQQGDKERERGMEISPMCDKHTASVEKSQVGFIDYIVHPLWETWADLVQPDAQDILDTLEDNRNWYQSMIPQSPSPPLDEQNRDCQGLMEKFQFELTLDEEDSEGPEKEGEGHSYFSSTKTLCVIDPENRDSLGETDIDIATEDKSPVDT
The assay is described as follows: PDE4B inhibition, radioactive SPA and/or IMAP fluorescence polarisation (FP) assay. The format is biochemical. The note with it: one reading or average of several (ca. 2-6) readings; SPA and/or FP assay; range given for a group of Examples; read-out: PDE4B pIC50 (±about 0.5) (converted). From the text:
Human recombinant PDE4B, in particular the 2B splice variant thereof (HSPDE4B2B), is disclosed in WO 94/20079 and also M. M. McLaughlin et al., “A low Km, rolipram-sensitive, cAMP-specific phosphodiesterase from human brain: cloning and expression of cDNA, biochemical characterisation of recombinant protein, and tissue distribution of mRNA”, J. Biol. Chem., 1993, 268, 6470-6476. For example, in Example 1 of WO 94/20079, human recombinant PDE4B is described as being expressed in the PDE-deficient yeast Saccharomyces cerevisiae strain GL62, e.g. after induction by addition of 150 uM CuSO4, and 100,000×g supernatant fractions of yeast cell lysates are described for use in the harvesting of PDE4B enzyme.
The ability of compounds to inhibit catalytic activity at PDE4B or 4D (human recombinant), PDE3 (from bovine aorta), PDE5 (human recombinant) or PDE6 (from bovine retina) can optionally be determined by Scintillation Proximity Assay (SPA) in 96-well format.
Test compounds (as a solution in DMSO, preferably about 2 microlitre (ul) volume of DMSO solution) are preincubated at ambient temperature (room temperature, e.g. 19-23° C.) in Wallac Isoplates (code 1450-514) with PDE enzyme in 50 mM Tris-HCl buffer pH 7.5, 8.3 mM MgCl2, 1.7 mM EGTA, 0.05% (w/v) bovine serum albumin for 10-30 minutes (usually 30 minutes). The enzyme concentration is adjusted so that no more than 20% hydrolysis of the substrate defined below occurs in control wells without compound, during the incubation. For the PDE3, PDE4B and PDE4D assays, [5′,8-3H]Adenosine 3′,5′-cyclic phosphate (Amersham Pharmacia Biotech, code TRK.559; or Amersham Biosciences UK Ltd, Pollards Wood, Chalfont St Giles, Buckinghamshire HP8 4SP, UK) is added to give 0.05 uCi per well and about 10 nM final concentration. For the PDE5 and PDE6 assays, [8-^3H]Guanosine 3′,5′-cyclic phosphate (Amersham Pharmacia Biotech, code TRK.392) is added to give 0.05 uCi per well and about 36 nM final concentration. Plates containing assay mixture, preferably approx. 100 ul volume of assay mixture, are mixed on an orbital shaker for 5 minutes and incubated at ambient temperature for 1 hour. Phosphodiesterase SPA beads (Amersham Pharmacia Biotech, code RPNQ 0150) are added (about 1 mg per well) to terminate the assay. Plates are sealed and shaken and allowed to stand at ambient temperature for 35 minutes to 1 hour (preferably 35 minutes) to allow the beads to settle. Bound radioactive product is measured using a WALLAC TRILUX 1450 Microbeta scintillation counter. For inhibition curves, 10 concentrations (1.5 nM-30 uM) of each compound are assayed. Curves are analysed using ActivityBase and XLfit (ID Business Solutions Limited, 2 Ocean Court, Surrey Research Park, Guildford, Surrey GU2 7QB, United Kingdom) Results are expressed as pIC50 values.
The ability of compounds to inhibit catalytic activity at PDE4B (human recombinant) or PDE4D (human recombinant) can optionally be determined by IMAP Fluorescence Polarisation (FP) assay (IMAP Explorer kit, available from Molecular Devices Corporation, Sunnydale, Calif., USA; Molecular Devices code: R8062) in 384-well format.
The IMAP FP assay is able to measure PDE activity in an homogenous, non-radioactive assay format. The FP assay uses the ability of immobilised trivalent metal cations, coated onto nanoparticles (tiny beads), to bind the phosphate group of Fl-AMP that is produced on the hydrolysis of fluorescein-labelled (Fl) cyclic adenosine mono-phosphate (Fl-cAMP) to the non-cyclic Fl-AMP form. […] Binding of Fl-AMP product to the beads (coated with the immobilised trivalent cations) slows the rotation of the bound Fl-AMP and leads to an increase in the fluorescence polarisation ratio of parallel to perpendicular light. Inhibition of the PDE reduces/inhibits this signal increase. […]
As for `CCn1ncc2c(N[C@H]3CC[C@@H](C(N)=O)CC3)c(C(=O)N[C@H](C)c3ccccc3)cnc21` [Example 354, 4-{[cis-4-(aminocarbonyl)cyclohexyl]amino}-1-ethyl-N-[(1R)-1-phenylethyl]-1H-pyrazolo[3,4-b]pyridine-5-carboxamide], the IC50 is 0.501 to 3.16 nM.

As to `CCn1ncc2c(N[C@H]3CC[C@@H](C(N)=O)CC3)c(C(=O)N[C@H](C)c3ccc(Br)cc3)cnc21` [Example 355, 4-{[cis-4-(aminocarbonyl)cyclohexyl]amino}-N-[(1R)-1-(4-bromophenyl)ethyl]-1-ethyl-1H-pyrazolo[3,4-b]pyridine-5-carboxamide], the IC50 is 0.501 to 3.16 nM.

Regarding `CC[C@@H](NC(=O)c1cnc2c(cnn2CC)c1N[C@H]1CC[C@H](C(N)=O)CC1)c1ccc(C)cc1C` [Example 356, 4-{[trans-4-(aminocarbonyl)cyclohexyl]amino}-N-[(1R)-1-(2,4-dimethylphenyl)propyl]-1-ethyl-1H-pyrazolo[3,4-b]pyridine-5-carboxamide], the IC50 is 39.8 to 158 nM.

For `CCn1ncc2c(N[C@H]3CC[C@H](C(N)=O)CC3)c(C(=O)N[C@H](C)c3ccc(C)cc3)cnc21` [Example 357, 4-{[trans-4-(aminocarbonyl)cyclohexyl]amino}-1-ethyl-N-[(1R)-1-(4-methylphenyl)ethyl]-1H-pyrazolo[3,4-b]pyridine-5-carboxamide], the IC50 is 39.8 to 158 nM.

As for `CCn1ncc2c(N[C@H]3CC[C@H](C(N)=O)CC3)c(C(=O)N[C@H](C)c3ccccc3)cnc21` [Example 358, 4-{[trans-4-(aminocarbonyl)cyclohexyl]amino}-1-ethyl-N-[(1R)-1-phenylethyl]-1H-pyrazolo[3,4-b]pyridine-5-carboxamide], the IC50 was 39.8 to 158 nM.

For `CCn1ncc2c(N[C@H]3CC[C@H](C(N)=O)CC3)c(C(=O)N[C@H](C)c3ccc(Br)cc3)cnc21` [Example 359, 4-{[trans-4-(aminocarbonyl)cyclohexyl]amino}-N-[(1R)-1-(4-bromophenyl)ethyl]-1-ethyl-1H-pyrazolo[3,4-b]pyridine-5-carboxamide], the IC50 is 39.8 to 158 nM.
